These results are taken from patent publication US9593149B2, “Amylin and calcitonin receptor agonist” (Novo Nordisk A/S, priority 2014, dated 2017).

This data set in a line: Assay (IV) determination of solubility. Type of data set: physicochemical. As to the method:
Assay (IV)—Determination of Solubility
The mimylin peptide was dissolved in water at ˜500 nmol/ml and mixed 1:1 with a series of buffers (100 mM glycylglycine pH 3.0, 100 mM glycylglycine pH 4.0, 100 mM glycylglycine pH 5.0, 100 mM bistrispropane pH 6.0, 100 mM bistrispropane pH 6.5, 100 mM bistrispropane pH 7.0, 100 mM bistrispropane pH 7.5, 100 mM bistrispropane pH 8.0).

Molecules are shown by their SMILES. ≈ marks a conversion by molar mass, not a printed value. Numbered stars: 1 amine (or outer) side, 2 acyl side, 3 side chain; on linkers, the order of the positions; unused ones are H or OH. Peptide text beside a SMILES is read from it. * marks the point of attachment. C20 diacid = O=C(O)CCCCCCCCCCCCCCCCCCC(=O)*; C18 diacid = O=C(O)CCCCCCCCCCCCCCCCC(=O)*; γGlu = O=C(O)[C@H](CCC(=O)[*:2])N[*:1]

As a reminder, the solubility is the dissolved amount per volume that the medium holds. High values mean a readily soluble substance, low ones a poorly soluble substance.

`CC(C)C[C@H](NC(=O)CNC(=O)[C@H](CO)NC(=O)[C@H](C)NC(=O)CC[C@H](NC(=O)CCCCCCCCCCCCCCCCCCC(=O)O)C(=O)O)C(=O)N[C@@H](CO)C(=O)N[C@H](C(=O)N[C@@H](C)C(=O)N[C@@H](C)C(=O)N[C@@H](CC(C)C)C(=O)NCC(=O)N[C@@H](CCCNC(=N)N)C(=O)N[C@@H](CC(C)C)C(=O)N[C@@H](CO)C(=O)N[C@H](C(=O)N[C@@H](CCC(=O)O)C(=O)N[C@@H](CC(C)C)C(=O)N[C@@H](Cc1cnc[nH]1)C(=O)N[C@@H](CCC(=O)O)C(=O)N[C@@H](CC(C)C)C(=O)N[C@@H](CCC(=O)O)C(=O)N[C@H](C(=O)N[C@@H](Cc1ccc(O)cc1)C(=O)N1CCC[C@H]1C(=O)N[C@@H](CCCNC(=N)N)C(=O)N[C@H](C(=O)N[C@@H](CCC(=O)O)C(=O)N[C@H](C(=O)NCC(=O)N[C@@H](CO)C(=O)NCC(=O)N[C@H](C(=O)N[C@@H](Cc1ccc(O)cc1)C(N)=O)[C@@H](C)O)[C@@H](C)O)[C@@H](C)O)[C@@H](C)O)[C@@H](C)O)[C@@H](C)O` [compound 112, [N-terminal(C20 diacid-gGlu), des1, 4G, 15T, 21E, 23Y, 30S, 31G, 32T, 33Y]mimylin] ({C20 diacid-γGlu}-ASGLSTAALGRLSTELHELETYPRTETGSGTY-NH2): the Solubility result is on record as “≧200 μM” (pH 3.0); “≧200 μM” (pH 6.0); “≧200 μM” (pH 6.5); “≧200 μM” (pH 7.0); “≧200 μM” (pH 7.5); “≧200 μM” (pH 8.0). In addition, the solubility at 18 h is on record as 132 µM (≈ 505 µg/mL) (pH 4.0) and 22 µM (≈ 84.1 µg/mL) (pH 5.0).
Consider `CC[C@H](C)[C@H](NC(=O)[C@H](C)NC(=O)[C@@H](NC(=O)[C@H](CO)NC(=O)[C@@H](NC(=O)[C@H](CCC(=O)O)NC(=O)[C@H](CO)NC(=O)[C@H](C)NC(=O)[C@H](CCC(=O)O)NC(=O)CCCCCCCCCCCCCCCCC(=O)O)[C@@H](C)CC)[C@@H](C)O)C(=O)N[C@H](C(=O)NCC(=O)N[C@@H](CCCNC(=N)N)C(=O)N[C@@H](CC(C)C)C(=O)N[C@@H](CO)C(=O)N[C@@H](C)C(=O)N[C@@H](CCC(=O)O)C(=O)N[C@@H](CC(C)C)C(=O)N[C@@H](Cc1cnc[nH]1)C(=O)N[C@@H](CCC(=O)O)C(=O)N[C@@H](CC(C)C)C(=O)N[C@@H](C)C(=O)N[C@H](C(=O)N[C@@H](CC(C)C)C(=O)N1CCC[C@H]1C(=O)N[C@@H](CCCNC(=N)N)C(=O)N[C@H](C(=O)N[C@@H](CCC(=O)O)C(=O)N[C@H](C(=O)NCC(=O)N1CCC[C@H]1C(=O)N[C@@H](CCC(=O)O)C(=O)N[C@@H](CO)C(=O)N1CCC[C@H]1C(N)=O)[C@@H](C)O)[C@@H](C)O)[C@@H](C)O)[C@@H](C)CC` [compound 37, [N-terminal(C18 diacid), 5I, 9I, 10I]mimylin] ({C18 diacid}-EASEISTAIIGRLSAELHELATLPRTETGPESP-NH2), for which the Solubility result is listed as “≧200 μM” (pH 3.0); “≧200 μM” (pH 5.0); “≧200 μM” (pH 6.0); “≧200 μM” (pH 6.5); “≧200 μM” (pH 7.0); “≧200 μM” (pH 7.5). The Solubility result (pH 8.0) is recorded as “≧200 μM”. Besides, the solubility at 18 h (pH 4.0) came to 18 µM (≈ 67.9 µg/mL).
Consider `CC(C)C[C@H](NC(=O)CNC(=O)[C@H](CO)NC(=O)[C@H](C)NC(=O)CC[C@H](NC(=O)CCCCCCCCCCCCCCCCCCC(=O)O)C(=O)O)C(=O)N[C@@H](CO)C(=O)N[C@H](C(=O)N[C@@H](C)C(=O)N[C@H](C(=O)N[C@@H](CC(C)C)C(=O)NCC(=O)N[C@@H](CCCNC(=N)N)C(=O)N[C@@H](CC(C)C)C(=O)N[C@@H](CO)C(=O)N[C@@H](CCC(N)=O)C(=O)N[C@@H](CCC(=O)O)C(=O)N[C@@H](CC(C)C)C(=O)N[C@@H](Cc1cnc[nH]1)C(=O)N[C@@H](CCC(=O)O)C(=O)N[C@@H](CC(C)C)C(=O)N[C@@H](CCC(N)=O)C(=O)N[C@H](C(=O)N[C@@H](Cc1ccc(O)cc1)C(=O)N1CCC[C@H]1C(=O)N1CCC[C@H]1C(=O)N[C@H](C(=O)N[C@@H](CCC(=O)O)C(=O)N[C@H](C(=O)NCC(=O)N[C@@H](CO)C(=O)N[C@@H](CCC(N)=O)C(=O)N[C@H](C(=O)N[C@@H](Cc1ccc(O)cc1)C(N)=O)[C@@H](C)O)[C@@H](C)O)[C@@H](C)O)[C@@H](C)O)C(C)C)[C@@H](C)O` [compound 125, [N-terminal(C20 diacid-gGlu), des1, 4G, 9V, 15Q, 21Q, 23Y, 25P, 30S, 31Q, 32T, 33Y]mimylin] ({C20 diacid-γGlu}-ASGLSTAVLGRLSQELHELQTYPPTETGSQTY-NH2), for which the Solubility result runs as follows: (pH 3.0) “≧200 μM”; (pH 5.0) “≧200 μM”; (pH 6.0) “≧200 μM”; (pH 6.5) “≧200 μM”; (pH 7.0) “≧200 μM”; (pH 7.5) “≧200 μM”. Besides, the Solubility entry (pH 8.0) is listed as “≧200 μM”. Further, the solubility at 18 h (pH 4.0) is given as 28 µM (≈ 109 µg/mL).
`CC(C)C[C@H](NC(=O)[C@H](CCC(=O)O)NC(=O)[C@H](Cc1cnc[nH]1)NC(=O)[C@H](CC(C)C)NC(=O)[C@H](CCC(=O)O)NC(=O)[C@H](C)NC(=O)[C@H](CO)NC(=O)[C@H](CC(C)C)NC(=O)[C@H](CCCNC(=N)N)NC(=O)CNC(=O)[C@H](CC(C)C)NC(=O)[C@@H](NC(=O)[C@H](C)NC(=O)[C@@H](NC(=O)[C@H](CO)NC(=O)[C@H](CC(C)C)NC(=O)[C@H](CCC(=O)O)NC(=O)[C@H](CO)NC(=O)[C@H](C)NC(=O)[C@H](CCC(=O)O)NC(=O)CCCCCCCCCCCCCCCCC(=O)O)[C@@H](C)O)C(C)C)C(=O)N[C@@H](C)C(=O)N[C@H](C(=O)N[C@@H](CC(C)C)C(=O)N1CCC[C@H]1C(=O)N1CCC[C@H]1C(=O)N[C@H](C(=O)N[C@@H](CCC(=O)O)C(=O)N[C@H](C(=O)NCC(=O)N1CCC[C@H]1C(=O)N[C@@H](CCC(=O)O)C(=O)N[C@@H](CO)C(=O)N1CCC[C@H]1C(N)=O)[C@@H](C)O)[C@@H](C)O)[C@@H](C)O` [compound 31, [N-terminal(C18 diacid), 9V, 25P]mimylin] ({C18 diacid}-EASELSTAVLGRLSAELHELATLPPTETGPESP-NH2): the Solubility entry runs as follows: (pH 3.0) “≧200 μM”; (pH 4.0) “≧200 μM”; (pH 5.0) “≧200 μM”; (pH 6.0) “≧200 μM”; (pH 6.5) “≧200 μM”; (pH 7.0) “≧200 μM”. Besides, the Solubility result runs as follows: (pH 7.5) “≧200 μM”; (pH 8.0) “≧200 μM”.
Turning to `CC(C)C[C@H](NC(=O)[C@H](CO)NC(=O)[C@H](C)NC(=O)[C@@H](NC(=O)[C@H](CO)NC(=O)[C@H](CC(C)C)NC(=O)[C@H](CCC(=O)O)NC(=O)[C@H](CO)NC(=O)[C@H](C)NC(=O)CC[C@H](NC(=O)CCCCCCCCCCCCCCCCCCC(=O)O)C(=O)O)[C@@H](C)O)C(=O)NCC(=O)N[C@@H](CCCNC(=N)N)C(=O)N[C@@H](CC(C)C)C(=O)N[C@@H](CO)C(=O)N[C@@H](C)C(=O)N[C@@H](CCC(=O)O)C(=O)N[C@@H](CC(C)C)C(=O)N[C@@H](Cc1cnc[nH]1)C(=O)N[C@@H](CCC(=O)O)C(=O)N[C@@H](CC(C)C)C(=O)N[C@@H](C)C(=O)N[C@H](C(=O)N[C@@H](Cc1ccc(O)cc1)C(=O)N1CCC[C@H]1C(=O)N[C@@H](CCCNC(=N)N)C(=O)N[C@H](C(=O)N[C@@H](CCC(=O)O)C(=O)N[C@H](C(=O)NCC(=O)N[C@@H](CO)C(=O)NCC(=O)N[C@@H](CO)C(=O)N[C@@H](Cc1ccc(O)cc1)C(N)=O)[C@@H](C)O)[C@@H](C)O)[C@@H](C)O` [compound 91, [N-terminal(C20 diacid-gGlu), des1, 9S, 23Y, 30S, 31G, 33Y]mimylin] ({C20 diacid-γGlu}-ASELSTASLGRLSAELHELATYPRTETGSGSY-NH2), the Solubility result (pH 3.0) is reported as “≧200 μM”; the Solubility entry (pH 6.0) is given as “≧200 μM”; the Solubility entry (pH 6.5) was “≧200 μM”; the Solubility result (pH 7.0) was “≧200 μM”; the Solubility result (pH 7.5) is recorded as “≧200 μM”; the Solubility entry (pH 8.0) is listed as “≧200 μM”. Further, the solubility at 18 h came to 7 µM (≈ 26.7 µg/mL) (pH 4.0) and 29 µM (≈ 110 µg/mL) (pH 5.0).
Take `CC(C)C[C@H](NC(=O)[C@H](CCC(=O)O)NC(=O)[C@H](Cc1cnc[nH]1)NC(=O)[C@H](CC(C)C)NC(=O)[C@H](CCC(=O)O)NC(=O)[C@H](C)NC(=O)[C@H](CO)NC(=O)[C@H](CC(C)C)NC(=O)[C@H](CCCNC(=N)N)NC(=O)CNC(=O)[C@H](CC(C)C)NC(=O)[C@@H](NC(=O)[C@H](C)NC(=O)[C@@H](NC(=O)[C@@H](NC(=O)[C@H](CC(C)C)NC(=O)[C@H](CCC(=O)O)NC(=O)[C@H](CO)NC(=O)[C@H](C)NC(=O)CC[C@H](NC(=O)CCCCCCCCCCCCCCCCC(=O)O)C(=O)O)[C@@H](C)O)[C@@H](C)O)C(C)C)C(=O)N[C@@H](C)C(=O)N[C@H](C(=O)N[C@@H](CC(C)C)C(=O)N1CCC[C@H]1C(=O)N[C@@H](CCCNC(=N)N)C(=O)N[C@H](C(=O)N[C@@H](CCC(=O)O)C(=O)N[C@H](C(=O)NCC(=O)N[C@H](C(=O)NCC(=O)N[C@H](C(=O)N1CCC[C@H]1C(N)=O)[C@@H](C)O)[C@@H](C)O)[C@@H](C)O)[C@@H](C)O)[C@@H](C)O` [compound 95, [N-terminal(C18 diacid-gGlu), des1, 6T, 9V, 30T, 31G, 32T]mimylin] ({C18 diacid-γGlu}-ASELTTAVLGRLSAELHELATLPRTETGTGTP-NH2): the Solubility result (pH 3.0) is listed as “≧200 μM”; the Solubility entry (pH 4.0) was “≧200 μM”; the Solubility entry (pH 5.0) is reported as “≧200 μM”; the Solubility result (pH 6.0) was “≧200 μM”; the Solubility entry (pH 6.5) is given as “≧200 μM”; the Solubility entry (pH 7.0) is recorded as “≧200 μM”. Besides, the Solubility entry (pH 7.5) is “≧200 μM” and the Solubility result (pH 8.0) is listed as “≧200 μM”.
